Test results reported in ChEMBL document CHEMBL5321224, “Antimicrobial peptides: Structure, mechanism, and modification” (2023).

Tests used:
Type in all cases: functional
Pseudomonas aeruginosa [1] = test: Antimicrobial activity against Pseudomonas aeruginosa KCTC 1637 measured after 18 hrs
Escherichia coli = test: Antimicrobial activity against Escherichia coli ATCC 33694 measured after 18 hrs
Pseudomonas aeruginosa [2] = test: Antimicrobial activity against Pseudomonas aeruginosa measured after 18 hrs

Substance | LD (Pseudomonas aeruginosa [1]) [µM] | LD (Escherichia coli) [µM] | LD (Pseudomonas aeruginosa [2]) [µM]
H-KWKKLLKKPLLKKLLKKL-NH2 | 0.78 |  | 
H-KWKLFKKIGIGKFLHSAKKF-NH2 |  | 6.25 | 1.56
